Here are results for one molecule from PMC4390081 (Biochemistry, 2013).

The target in this test is chlorite dismutase (DaCld) (Dechloromonas aromatica (nom. nud.), UniProt Q47CX0). The test is described as follows: steady-state peroxidase assay. The format is biochemical.
Sequence of chlorite dismutase (DaCld) (Q47CX0 35-282): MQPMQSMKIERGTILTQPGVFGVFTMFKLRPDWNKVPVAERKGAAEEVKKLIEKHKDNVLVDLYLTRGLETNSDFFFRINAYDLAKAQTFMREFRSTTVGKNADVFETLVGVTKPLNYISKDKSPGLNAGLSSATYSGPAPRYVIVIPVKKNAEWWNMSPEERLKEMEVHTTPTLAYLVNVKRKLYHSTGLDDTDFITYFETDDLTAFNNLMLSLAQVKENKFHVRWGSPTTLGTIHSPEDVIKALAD

For the molecule `COc1ccccc1O` [guaiacol, 2-methoxyphenol], the “kcat (S^-1)” value worked out at 2.8 s⁻¹.
